# The source made the active and inactive calls. No rule for the calls is given here.
# System: CCRIS mutagenicity, Ames/micronucleus/aberration tests
# Experiment: CCRIS mutagenicity studies
smiles,measurement,setting,value
c1ccccc1,mutagenic call,"End Point: IN VITRO CHROMOSOMAL ABERRATIONS, Test System: BOVINE PERIPHERAL LYMPHOCYTES, Metabolic Activation: NONE",active; positive (structural changes)
same,mutagenic call,"End Point: IN VITRO CHROMOSOMAL ABERRATIONS, Test System: BOVINE PERIPHERAL LYMPHOCYTES, Metabolic Activation: NONE, Method: FISH",active; positive (structural changes)
same,mutagenic call,"End Point: IN VITRO CHROMOSOMAL ABERRATIONS, Test System: BOVINE PERIPHERAL LYMPHOCYTES, Metabolic Activation: RAT, S-9, AROCLOR 1254",active; positive (structural changes)
same,mutagenic call,"End Point: IN VITRO CHROMOSOMAL ABERRATIONS, Test System: CHO CELLS, Metabolic Activation: NONE",inactive; negative
same,mutagenic call,"End Point: IN VITRO CHROMOSOMAL ABERRATIONS, Test System: CHO CELLS, Metabolic Activation: RAT, LIVER, S-9, AROCLOR 1254",inactive; negative
same,mutagenic call,"End Point: IN VITRO MICRONUCLEUS, Test System: AHH-1 CELLS, Metabolic Activation: NONE",inactive; negative
same,mutagenic call,"End Point: IN VITRO MICRONUCLEUS, Test System: BOVINE LYMPHOCYTES, Metabolic Activation: NONE",active; positive
same,mutagenic call,"End Point: IN VITRO MICRONUCLEUS, Test System: BOVINE LYMPHOCYTES, Metabolic Activation: S-9 MIX, AROCLOR 1254",active; positive
same,mutagenic call,"End Point: IN VITRO MICRONUCLEUS, Test System: CHL/IU CELLS, Metabolic Activation: RAT, LIVER, S-9, PHENOBARBITAL AND 5,6-BENZOFLAVONE",active; positive
same,mutagenic call,"End Point: IN VITRO MICRONUCLEUS, Test System: MCL-5 CELLS, Metabolic Activation: NONE",active; positive
same,mutagenic call,"End Point: IN VITRO MICRONUCLEUS, Test System: V79 CELLS, Metabolic Activation: RAT, LIVER, S-9, AROCLOR 1254",inactive; negative
same,mutagenic call,"End Point: IN VIVO CHROMOSOMAL ABERRATIONS, Test System: DUAL COLOR PAINTING OF CHROMOSOMES 8 AND 21 FROM PERIPHERAL LYMPHOCYTES, METAPHASE SPREADS, Species: HUMAN, Strain/Sex: MALE, FEMALE, Route: INHALATION (WORKPLACE), Method: FISH",active; positive
same,mutagenic call,"End Point: IN VIVO CHROMOSOMAL ABERRATIONS, Test System: HUMAN PERIPHERAL LYMPHOCYTES, Species: HUMAN, Route: INHALATION (WORKPLACE), Method: FISH",breaks in chromosomes 1 and 9
same,mutagenic call,"End Point: IN VIVO CHROMOSOMAL ABERRATIONS, Test System: LYMPHOCYTES, Species: HUMAN, Route: PROBABLY INHALATION, Method: FISH (INTERPHASE OR METAPHASE; CHROMOSOMES 7, 8, 9)",active; positive (structural and ploidy changes)
same,mutagenic call,"End Point: IN VIVO CHROMOSOMAL ABERRATIONS, Test System: PERIPHERAL BLOOD LYMPHOCYTES, Species: HUMAN (COKE OVEN WORKERS), Route: INHALATION, Method: FISH",active; positive (monosomy and trisomy of chromosomes 8 and 21)
same,mutagenic call,"End Point: IN VIVO CHROMOSOMAL ABERRATIONS, Test System: PERIPHERAL BLOOD LYMPHOCYTES, Species: HUMAN (PETROLEUM REFINERY WORKERS), Strain/Sex: MALE, Route: INDUSTRIAL EXPOSURE",active; positive
same,mutagenic call,"End Point: IN VIVO CHROMOSOMAL ABERRATIONS, Test System: PERIPHERAL HUMAN LYMPHOCYTES, Species: HUMAN, Route: INDUSTRIAL EXPOSURE (INHALATION)",active; positive (ploidy)
same,mutagenic call,"End Point: IN VIVO MICRONUCLEUS, Test System: BONE MARROW POLYCHROMATIC ERYTHROCYTES, Species: MOUSE, Strain/Sex: CD-1/MALE, Route: ORAL (GAVAGE)",active; positive
same,mutagenic call,"End Point: IN VIVO MICRONUCLEUS, Test System: BONE MARROW, Species: MOUSE, Strain/Sex: B6C3F1/MALE, Route: GAVAGE",active; positive
same,mutagenic call,"End Point: IN VIVO MICRONUCLEUS, Test System: SPLENOCYTES, Species: MOUSE, Strain/Sex: CD-1/MALE, Route: ORAL (GAVAGE)",active; positive
same,mutagenic call,"End Point: In vivo micronucleus, Test System: Bone marrow polychromatic erythrocytes, Species: Mouse, Strain/Sex: CD-1/Male, Route: Inhalation",active; positive
same,mutagenic call,"End Point: In vivo micronucleus, Test System: Peripheral blood normochromatic erythrocytes, Species: Mouse, Strain/Sex: B6.129-Cdkn2atm1Rdp (i.e. Haploinsufficient p16Ink4a/p19Arf)/Female, Route: Gavage",active; positive (deletions in the cdkn2a gene predispose rodents to cancer at multiple
same,mutagenic call,"End Point: In vivo micronucleus, Test System: Peripheral blood normochromatic erythrocytes, Species: Mouse, Strain/Sex: B6.129-Cdkn2atm1Rdp (i.e. Haploinsufficient p16Ink4a/p19Arf)/Male, Route: Gavage",active; positive (deletions in the cdkn2a gene predispose rodents to cancer at multiple
same,mutagenic call,"Test System: AMES SALMONELLA TYPHIMURIUM, Strain/Indicator: TA97, Metabolic Activation: HAMSTER LIVER S-9, AROCLOR 1254 (10 OR 30%), Method: PREINCUBATION",inactive; negative
same,mutagenic call,"Test System: AMES SALMONELLA TYPHIMURIUM, Strain/Indicator: TA97, Metabolic Activation: NONE, Method: PREINCUBATION",inactive; negative
same,mutagenic call,"Test System: AMES SALMONELLA TYPHIMURIUM, Strain/Indicator: TA97, Metabolic Activation: NONE, Method: STANDARD PLATE",inactive; negative
same,mutagenic call,"Test System: AMES SALMONELLA TYPHIMURIUM, Strain/Indicator: TA97, Metabolic Activation: RAT LIVER S-9, AROCLOR 1254 (10 OR 30%), Method: PREINCUBATION",inactive; negative
same,mutagenic call,"Test System: AMES SALMONELLA TYPHIMURIUM, Strain/Indicator: TA97, Metabolic Activation: RAT, LIVER, S-9, AROCLOR 1254, Method: STANDARD PLATE",inactive; negative
same,mutagenic call,"Test System: AMES SALMONELLA TYPHIMURIUM, Strain/Indicator: TA97, Metabolic Activation: S-9, Method: STANDARD PLATE",inactive; negative
same,mutagenic call,"Test System: AMES SALMONELLA TYPHIMURIUM, Strain/Indicator: TA98, Metabolic Activation: HAMSTER LIVER S-9, AROCLOR 1254 (10 OR 30%), Method: PREINCUBATION",inactive; negative
same,mutagenic call,"Test System: AMES SALMONELLA TYPHIMURIUM, Strain/Indicator: TA98, Metabolic Activation: NONE, Method: PREINCUBATION",inactive; negative
same,mutagenic call,"Test System: AMES SALMONELLA TYPHIMURIUM, Strain/Indicator: TA98, Metabolic Activation: RAT LIVER S-9, AROCLOR 1254 (10 OR 30%), Method: PREINCUBATION",inactive; negative
same,mutagenic call,"Test System: AMES SALMONELLA TYPHIMURIUM, Strain/Indicator: TA98, Metabolic Activation: RAT, LIVER, S-9, AROCLOR 1254, Method: DESICCATOR",inactive; negative
same,mutagenic call,"Test System: AMES SALMONELLA TYPHIMURIUM, Strain/Indicator: TA98, Metabolic Activation: RAT, LIVER, S-9, AROCLOR 1254, Method: STANDARD PLATE",inactive; negative
same,mutagenic call,"Test System: AMES SALMONELLA TYPHIMURIUM, Strain/Indicator: TA98, Metabolic Activation: RAT, LIVER, S-9, AROCLOR, Method: STANDARD PLATE",inactive; negative
same,mutagenic call,"Test System: AMES SALMONELLA TYPHIMURIUM, Strain/Indicator: TA98, Metabolic Activation: RAT, LIVER, S-9, ETHANOL, Method: STANDARD PLATE",inactive; negative
same,mutagenic call,"Test System: AMES SALMONELLA TYPHIMURIUM, Strain/Indicator: TA98, Metabolic Activation: RAT, LIVER, S-9, PHENOBARBITAL, Method: STANDARD PLATE",inactive; negative
same,mutagenic call,"Test System: AMES SALMONELLA TYPHIMURIUM, Strain/Indicator: TA98, Metabolic Activation: RAT, LIVER, S-9, PYRAZOLE, Method: STANDARD PLATE",inactive; negative
same,mutagenic call,"Test System: AMES SALMONELLA TYPHIMURIUM, Strain/Indicator: TA98, Metabolic Activation: S-9, Method: STANDARD PLATE",inactive; negative
same,mutagenic call,"Test System: AMES SALMONELLA TYPHIMURIUM, Strain/Indicator: TA100, Metabolic Activation: HAMSTER LIVER S-9, AROCLOR 1254 (10 OR 30%), Method: PREINCUBATION",inactive; negative
same,mutagenic call,"Test System: AMES SALMONELLA TYPHIMURIUM, Strain/Indicator: TA100, Metabolic Activation: NONE, Method: DESICCATOR",inactive; negative
same,mutagenic call,"Test System: AMES SALMONELLA TYPHIMURIUM, Strain/Indicator: TA100, Metabolic Activation: NONE, Method: PREINCUBATION",inactive; negative
same,mutagenic call,"Test System: AMES SALMONELLA TYPHIMURIUM, Strain/Indicator: TA100, Metabolic Activation: RAT LIVER S-9, AROCLOR 1254 (10 OR 30%), Method: PREINCUBATION",inactive; negative
same,mutagenic call,"Test System: AMES SALMONELLA TYPHIMURIUM, Strain/Indicator: TA100, Metabolic Activation: RAT, LIVER, S-9, AROCLOR 1254, Method: DESICCATOR",inactive; negative
same,mutagenic call,"Test System: AMES SALMONELLA TYPHIMURIUM, Strain/Indicator: TA100, Metabolic Activation: RAT, LIVER, S-9, AROCLOR 1254, Method: STANDARD PLATE",inactive; negative
same,mutagenic call,"Test System: AMES SALMONELLA TYPHIMURIUM, Strain/Indicator: TA100, Metabolic Activation: RAT, LIVER, S-9, AROCLOR, Method: STANDARD PLATE",inactive; negative
same,mutagenic call,"Test System: AMES SALMONELLA TYPHIMURIUM, Strain/Indicator: TA100, Metabolic Activation: RAT, LIVER, S-9, ETHANOL, Method: STANDARD PLATE",inactive; negative
